The values that follow come from patent US6515140B2, “Fused pyrrolecarboxamides; a new class of GABA brain receptor ligands” (Neurogen Corporation, priority 1996, dated 2003).

One data set has as its target GABAa receptor. Briefly: GABAa receptor binding assay (3H-RO15-1788 displacement). As to conditions: rat cortical tissue homogenate; radioligand 0.5 nM 3H-RO15-1788 [3H-Flumazenil]; 30 min at 4° C. As for the experimental part:
The pharmaceutical utility of compounds of this invention are indicated by the following assay for GABAa receptor binding activity.
Assays are carried out as described in Thomas and Tallman (J. Bio. Chem. 156:9838-9842 , J. Neurosci. 3:433-440, 1983). Rat cortical tissue is dissected and homogenized in 25 volumes (w/v) of 0.05 M Tris HCl buffer (pH 7.4 at 4° C.). The tissue homogenate is centrifuged in the cold (4°) at 20,000×g for 20′. The supernatant is decanted and the pellet is rehomogenized in the same volume of buffer and again centrifuged at 20,000×g. The supernatant is decanted and the pellet is frozen at −20° C. overnight. The pellet is then thawed and rehomogenized in 25 volume (original wt/vol) of buffer and the procedure is carried out twice. The pellet is finally resuspended in 50 volumes (w/vol of 0.05 M Tris HCl buffer (pH 7.4 at […]).
Incubations contain […] of tissue homogenate, […] of radioligand 0.5 nM (^3H-RO15-1788 [^3H-Flumazenil] specific activity 80 Ci/mmol), drug or blocker and buffer to a total volume of […]. Incubations are carried for 30 min at 4° C. then are rapidly filtered through GFB filters to separate free and bound ligand. Filters are washed twice with fresh 0.05 M Tris HCl buffer (pH 7.4 at 4° C.) and counted in a liquid scintillation counter. […] diazepam is added to some tubes to determine nonspecific binding. Data are collected in triplicate determinations, averaged and % inhibition of total specific binding is calculated. Total Specific Binding=Total−Nonspecific. In some cases, the amounts of unlabeled drugs is varied and total displacement curves of binding are carried out.

For orientation: Ki means a dissociation constant, usually derived from enzyme kinetics or from competition with a known ligand. A lower Ki goes with a stronger hold on the target. What is called melting point is the temperature, or range, at which the solid turns liquid.

`O=C(Nc1ccc2c(c1)OCO2)c1c[nH]c2c1C(=O)CCC2` [Compound 10, N-(1,3-Benzodioxol-5-yl)-4-oxo-4,5,6,7-tetrahydro-1H-indole-3-carboxamide] had a melting point of 248 to 249 °C. In addition, on GABAa receptor, the Ki was 37 nM.

`O=C(Nc1ccc2c(c1)OCCO2)c1c[nH]c2c1C(=O)CCC2` [Compound 11, N-(2,3-Dihydro-1,4-benzodioxin-6-yl)-4-oxo-4,5,6,7-tetrahydro-1H-indole-3-carboxamide] gave a melting point of 254 to 256 °C. Further, the Ki on GABAa receptor was found to be 7 nM.

The compound `O=C(Nc1ccc2c(c1)OCCO2)c1c[nH]c2c1C(=O)CCCC2` [Compound 12, N-(2,3-Dihydro-1,4-benzodioxin-6-yl)-4-oxo-1,4,5,6,7,8-hexahydro-cyclohepta[b]pyrrole-3-carboxamide] displayed a melting point of 222 to 223 °C. At GABAa receptor, this compound displayed a Ki of 5 nM.

Take `O=C(Nc1ccc2c(c1)NCC2)c1c[nH]c2c1C(=O)CCC2` [Compound 13, N-(2,3-Dihydro-1H-indol-6-yl)-4-oxo-4,5,6,7-tetrahydro-1H-indole-3-carboxamide]: the melting point fell in the range of 322 to 323 °C. The Ki at GABAa receptor came to 24 nM.
